This note sets out measurements from patent US20090137549A1, “Novel compounds useful for the treatment of degenerative & inflamatory diseases” (priority 2006, published 2009).

Broadly, the IC50 is the concentration that gives 50% inhibition. Low readings indicate greater potency, high ones weaker potency.

The experiment concerns the target PDE1A (Homo sapiens, UniProt P54750). The experiment is described as follows: PDE1A dose response, Cyclic Nucleotide Phosphodiesterase Assay Kit from Biomol (colorimetric). The class given is biochemical. The note with it: purified PDE1A enzyme, 100 μM cAMP. In outline: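 Purified PDE1A hydrolysed 100 μM cAMP with 5′-nucleotidase in Tris 20 mM pH 7.4 with calmodulin, Ca2+, Mg2+, 45 min at 37° C. Released phosphate read by malachite-green absorbance at 615 nm. Duplicate 8-point 1/3 dilutions from 20 μM, 1% DMSO; 10 μM vardenafil defined 100% inhibition.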
In turn, `N#C/N=C(/Nc1ccc(F)cc1)N1CC(c2nc3c(cnn3C3CCCCC3)c(=O)[nH]2)C1` [Example 177, N′-Cyano-3-(1-cyclohexyl-4-oxo-4,5-dihydro-1H-pyrazolo[3,4-d]pyrimidin-6-yl)-N-(4-fluorophenyl)azetidine-1-carboximidamide] gave an IC50 of 1 to 100 nM.
`CC(C)N1CCN(c2ccc(-c3csc(N4CC(c5nc6c(cnn6C6CCCCC6)c(=O)[nH]5)C4)n3)cc2)CC1` [Example 161, 1-Cyclohexyl-6-(1-(4-(4-(4-isopropylpiperazin-1-yl)phenyl)thiazol-2-yl)azetidin-3-yl)-1H-pyrazolo[3,4-d]pyrimidin-4-(5H)-one] displayed an IC50 of 1 to 100 nM.
The molecule `Cc1nn(C2CCCCC2)c2nc(C3CN(C(=O)Cc4ccccc4)C3)[nH]c(=O)c12` [Example 85, 1-cyclohexyl-3-methyl-6-(1-(2-phenylacetoyl)azetidin-3-yl)-1H-pyrazolo[3,4-d]pyrimidin-4(5H)-one] returned a half-maximal inhibitory concentration (IC50) of 501 to 1000 nM.
`COC(=O)c1cccc(C(=O)N2CCCC(c3nc4c(c(C)nn4C4CCCCC4)c(=O)[nH]3)C2)c1` (centres unmarked) [Example 73, methyl 3-(3-(1-cyclohexyl-3-methyl-4-oxo-4,5-dihydro-1H-pyrazolo[3,4-d]pyrimidin-6-yl)piperidine-1-carbonyl)benzaate] returned an IC50 of 101 to 500 nM.
`O=C(c1ccc2c(c1)OCO2)N1CCCC(c2nc3c(cnn3C3CCCCC3)c(=O)[nH]2)C1` (centres unmarked) [Example 76, 6-(1-(benzo[d][1,3]dioxole-5-carbonyl)piperidin-3-yl)-1-cyclohexyl-1H-pyrazolo[3,4-d]pyrimidin-4(5H)-one]: the IC50 lay within 101 to 500 nM.
`O=C(Nc1ccc(F)cc1)N1CC(c2nc3c(cnn3C3CCCCC3)c(=O)[nH]2)C1` [Example 19, 3-(1-cyclohexyl-4-oxo-4,5-dihydro-1H-pyrazolo[3,4-d]pyrimidin-6-yl)-N-(4-fluorophenyl)azetidine-1-carboxamide] came in with an IC50 of 1 to 100 nM.
Molecule `Cc1nn(C2CCCCC2)c2nc(C3CN(C(=O)N[C@@H](C)c4ccccc4)C3)[nH]c(=O)c12` [Example 42, (S)-3-(1-cyclohexyl-3-methyl-4-oxo-4,5-dihydro-1H-pyrazolo[3,4-d]pyrimidin-6-yl)-N-(1-phenylethyl)azetidine-1-carboxamide] returned an IC50 of 1 to 100 nM.
Turning to `COc1ccccc1C(=O)N1CCCC(c2nc3c(c(C)nn3-c3ccccc3)c(=O)[nH]2)C1` (centres unmarked) [Example 90, 6-(1-(2-methoxybenzoyl)piperidin-3-yl)-3-methyl-1-phenyl-1H-pyrazolo[3,4-d]pyrimidin-4(5H)-one], the IC50 lay in the range of 501 to 1000 nM.
As for `O=c1[nH]c(C2CN(c3ncc(-c4ccccc4)s3)C2)nc2c1cnn2C1CCCCC1` [Example 160, 1-Cyclohexyl-6-(1-(5-phenylthiazol-2-yl)azetidin-3-yl)-1H-pyrazolo[3,4-d]pyrimidin-4-(5H)-one], the figure is 101 to 500 nM; as for `O=c1[nH]c(C2CN(c3nnc(-c4ccccc4)o3)C2)nc2c1cnn2C1CCCCC1` [Example 133, 1-cyclohexyl-6-(1-(5-phenyl-1,3,4-oxadiazol-2-yl)azetidin-3-yl)-1H-pyrazolo[3,4-d]pyrimidin-4(5H)-one], 101 to 500 nM.
Then `O=c1[nH]c(C2CCCN(c3ccc(C(F)(F)F)cn3)C2)nc2c1cnn2C1CCCCC1` (centres unmarked) [Example 154, 1-cyclohexyl-6-(1-(5-(trifluoromethyl)pyridin-2-yl)piperidin-3-yl)-1H-pyrazolo[3,4-d]pyrimidin-4(5H)-one], with 1000 to 1500 nM.
As for `Cc1nn(C2CCCCC2)c2nc(C3CN(C(=O)NCc4ccc(F)cc4)C3)[nH]c(=O)c12` [Example 27, 3-(1-cyclohexyl-3-methyl-4-oxo-4,5-dihydro-1H-pyrazolo[3,4-d]pyrimidin-6-yl)-N-(4-fluorobenzyl)azetidine-1-carboxamide], the figure is 1 to 100 nM; as for `O=C(c1cccc2c1OCO2)N1CCCC(c2nc3c(cnn3C3CCCCC3)c(=O)[nH]2)C1` (centres unmarked) [Example 49, 6-(1-(benzo[d][1,3]dioxole-4-carbonyl)piperidin-3-yl)-1-cyclohexyl-1H-pyrazolo[3,4-d]pyrimidin-4(5H)-one], 101 to 500 nM; as for `O=C(NC1CC1)N1CC(c2nc3c(cnn3C3CCCCC3)c(=O)[nH]2)C1` [Example 69, 3-(1-cyclohexyl-4-oxo-4,5-dihydro-1H-pyrazolo[3,4-d]pyrimidin-6-yl)-N-cyclopropylazetidine-1-carboxamide], 101 to 500 nM.
As to `COc1ccc(CNC(=O)N2CC(c3nc4c(c(C)nn4C4CCCCC4)c(=O)[nH]3)C2)cc1` [Example 28, 3-(1-cyclohexyl-3-methyl-4-oxo-4,5-dihydro-1H-pyrazolo[3,4-d]pyrimidin-6-yl)-N-(4-methoxybenzyl)azetidine-1-carboxamide], the half-maximal inhibitory concentration (IC50) fell in the range of 1 to 100 nM.
Molecule `O=C(NCc1ccc(F)cc1)N1CC(c2nc3c(cnn3C3CCCCC3)c(=O)[nH]2)C1` [Example 30, 3-(1-cyclohexyl-4-oxo-4,5-dihydro-1H-pyrazolo[3,4-d]pyrimidin-6-yl)-N-(4-fluorobenzyl)azetidine-1-carboxamide] returned an IC50 of 1 to 100 nM.
As for `Cc1nn(C2CCCCC2)c2nc(C3CCCN(C(=O)c4ccccc4)C3)[nH]c(=O)c12` (centres unmarked) [Example 89, 6-(1-benzoylpiperidin-3-yl)-1-cyclohexyl-3-methyl-1H-pyrazolo[3,4-d]pyrimidin-4(5H)-one], the figure is 501 to 1000 nM.
For the molecule `Cc1nn(C(C)(C)C)c2nc(C3CN(C(=O)Nc4ccc5c(c4)OCO5)C3)[nH]c(=O)c12` [Example 1, N-(Benzo[d][1,3]dioxol-5-yl)-3-(1-tert-butyl-3-methyl-4-oxo-4,5-dihydro-1H-pyrazolo[3,4-d]pyrimidin-6-yl)azetidine-1-carboxamide], the IC50 lay in the range of 1 to 100 nM.
Then `Cc1ccc(NC(=O)N2CC(c3nc4c(cnn4C4CCCCC4)c(=O)[nH]3)C2)cc1C` [Example 4, 3-(1-cyclohexyl-4-oxo-4,5-dihydro-1H-pyrazolo[3,4-d]pyrimidin-6-yl)-N-(3,4-dimethylphenyl)azetidine-1-carboxamide], with 1 to 100 nM.
The molecule `Cc1nn(C(C)(C)C)c2nc(C3CN(C(=O)Nc4ccccc4)C3)[nH]c(=O)c12` [Example 6, 3-(1-tert-butyl-3-methyl-4-oxo-4,5-dihydro-1H-pyrazolo[3,4-d]pyrimidin-6-yl)-N-phenylazetidine-1-carboxamide] had an IC50 of 1 to 100 nM.
Take `CC(C)(C)n1ncc2c(=O)[nH]c(C3CN(CC(=O)c4ccccc4)C3)nc21` [Example 174, 1-tert-Butyl-6-(1-(2-oxo-2-phenylethyl)azetidin-3-yl)-1H-pyrazolo[3,4-d]pyrimidin-4(5H)-one]: the half-maximal inhibitory concentration (IC50) was 101 to 500 nM.
The molecule `COc1ccc(S(=O)(=O)N2CCCC(c3nc4c(cnn4C4CCCCC4)c(=O)[nH]3)C2)cc1OC` (centres unmarked) [Example 44, 1-cyclohexyl-6-(1-(3,4-dimethoxyphenylsulfonyl)piperidin-3-yl)-1H-pyrazolo[3,4-d]pyrimidin-4(5H)-one] gave an IC50 of 1 to 100 nM.
Take `O=c1[nH]c(C2CN(/C(=C\[N+](=O)[O-])NCC3CCCCC3)C2)nc2c1cnn2C1CCCCC1` [Example 180, 1-Cyclohexyl-6-(1-(1-(cyclohexylmethylamino)-2-nitrovinyl)azetidin-3-yl)-1H=pyrazolo[3,4-d]pyrimidin-4(5H)-one]: the 50% inhibitory concentration (IC50) is 101 to 500 nM.
In the case of `O=c1[nH]c(C2CN(c3ncc(Br)s3)C2)nc2c1cnn2C1CCCCC1` [Example 140, 6-(1-(5-bromothiazol-2-yl)azetidin-3-yl)-1-cyclohexyl-1H-pyrazolo[3,4-d]pyrimidin-4(5H)-one], the IC50 lay in the range of 501 to 1000 nM.
`Cc1nn(C2CCCCC2)c2nc(C3CCCN(C(=O)c4ccsc4)C3)[nH]c(=O)c12` (centres unmarked) [Example 97, 1-cyclohexyl-3-methyl-6-(1-(thiophene-3-carbonyl)piperidin-3-yl)-1H-pyrazolo[3,4-d]pyrimidin-4(5H)-one] gave an IC50 of 1000 to 1500 nM.
Take `O=C(Nc1ccccc1)N1CC(c2nc3c(cnn3C3CCCCC3)c(=O)[nH]2)C1` [Example 11, 3-(1-cyclohexyl-4-oxo-4,5-dihydro-1H-pyrazolo[3,4-d]pyrimidin-6-yl)-N-phenylazetidine-1-carboxamide]: the IC50 fell in the range of 1 to 100 nM.
`O=C(NCCN1CCCC1)N1CC(c2nc3c(cnn3C3CCCCC3)c(=O)[nH]2)C1` [Example 84, 3-(1-cyclohexyl-4-oxo-4,5-dihydro-1H-pyrazolo[3,4-d]pyrimidin-6-yl)-N-(2-(pyrrolidin-1-yl)ethyl)azetidine-1-carboxamide] showed an IC50 of 501 to 1000 nM.
On to `O=c1[nH]c(C2CN(c3ccc(CN4CCOCC4)cc3)C2)nc2c1cnn2C1CCCCC1` [Example 155, 1-Cyclohexyl-6-[1-(4-morpholin-4-ylmethyl-phenyl)-azetidin-3-yl]-1,5-dihydro-pyrazolo[3,4-d]pyrimidin-4-one], for which the half-inhibitory concentration (IC50) lay within 1 to 100 nM.
Molecule `Cc1nn(C(C)(C)C)c2nc(C3CN(C(=O)Nc4ccc(F)cc4)C3)[nH]c(=O)c12` [Example 12, 3-(1-tert-butyl-3-methyl-4-oxo-4,5-dihydro-1H-pyrazolo[3,4-d]pyrimidin-6-yl)-N-(4-fluorophenyl)azetidine-1-carboxamide] showed an IC50 of 1 to 100 nM.
The molecule `CC(C)(C)n1ncc2c(=O)[nH]c(C3CN(c4nc5ccc(Br)cc5[nH]4)C3)nc21` [Example 126, 6-(1-(6-bromo-1H-benzo[d]imidazol-2-yl)azetidin-3-yl)-1-tert-butyl-1H-pyrazolo[3,4-d]pyrimidin-4(5H)-one] showed an IC50 of 1 to 100 nM.
`COc1cccc(N2CC(c3nc4c(cnn4C4CCCCC4)c(=O)[nH]3)C2)c1` [Example 166, 1-cyclohexyl-6-(1-(3-methoxyphenyl)azetidin-3-yl)-1H-pyrazolo[3,4-d]pyrimidin-4(5H)-one]: the IC50 lay within 101 to 500 nM.
With `Cc1nn(C2CCCCC2)c2nc(C3CN(C(=O)OCc4ccccc4)C3)[nH]c(=O)c12` [Example 115, Benzyl 3-(1-cyclohexyl-3-methyl-4-oxo-4,5-dihydro-1H-pyrazolo[3,4-d]pyrimidin-6-yl)azetidine-1-carboxylate], the IC50 lay within 101 to 500 nM.
